PubChem BioAssay (NCI)
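GI50: concentration for 50% inhibition of growth. TGI: total growth inhibition.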

Tests used:
Experiment in all cases: inhibition of tumour cell growth, NCI panel, 384-well format
COLO 205 colon = tested on: COLO 205 colon
HT29 colon = tested on: HT29 colon
M14 melanoma = tested on: M14 melanoma
MCF7 breast = tested on: MCF7 breast
MDA-MB-231 breast = tested on: MDA-MB-231 breast
NCI/ADR-RES ovarian = tested on: NCI/ADR-RES ovarian
OVCAR-8 ovarian = tested on: OVCAR-8 ovarian
SF-268 CNS = tested on: SF-268 CNS
SF-539 CNS = tested on: SF-539 CNS
SK-MEL-5 melanoma = tested on: SK-MEL-5 melanoma
SW-620 colon = tested on: SW-620 colon
UACC-62 melanoma = tested on: UACC-62 melanoma
UO-31 renal = tested on: UO-31 renal

SMILES | GI50 (COLO 205 colon) [µM] | TGI (COLO 205 colon) [µM] | GI50 (HT29 colon) [µM] | TGI (HT29 colon) [µM] | GI50 (M14 melanoma) [µM] | TGI (M14 melanoma) [µM] | GI50 (MCF7 breast) [µM] | TGI (MCF7 breast) [µM] | GI50 (MDA-MB-231 breast) [µM] | TGI (MDA-MB-231 breast) [µM] | GI50 (NCI/ADR-RES ovarian) [µM] | TGI (NCI/ADR-RES ovarian) [µM] | GI50 (OVCAR-8 ovarian) [µM] | TGI (OVCAR-8 ovarian) [µM] | GI50 (SF-268 CNS) [µM] | TGI (SF-268 CNS) [µM] | GI50 (SF-539 CNS) [µM] | TGI (SF-539 CNS) [µM] | GI50 (SK-MEL-5 melanoma) [µM] | TGI (SK-MEL-5 melanoma) [µM] | other results
CC[C@H](Nc1ncnc2nc[nH]c12)c1nc2cccc(F)c2c(=O)n1-c1ccccc1 | > 67.3 | > 100 | 58.2 | > 100 | > 69 | > 100 | 7.96 | 69.5 | 73.6 | > 100 | 54.7 | > 100 | 50.3 | > 100 | 25.6 | > 100 | 33.2 | > 100 | 7.4 | > 45.7 | GI50 (SW-620 colon): > 75.8 µM; TGI (SW-620 colon): > 100 µM; GI50 (UACC-62 melanoma): 19.4 µM; TGI (UACC-62 melanoma): > 100 µM; GI50 (UO-31 renal): 5.12 µM
CC(C)Nc1cc(-c2c[nH]c(C(=O)N[C@H](CO)c3cccc(Cl)c3)c2)c(Cl)cn1 | 0.134 | 1.07 | 0.289 | 13.2 | 0.0842 | 0.328 | 3.72 | 15.9 | 1.37 | 17.1 | 9.98 | 22.2 | 5.72 | 19.5 | 11 | 23 | 4.36 | 16.2 | 0.265 | 2.04 | GI50 (SW-620 colon): 0.13 µM; TGI (SW-620 colon): 1.82 µM; GI50 (UACC-62 melanoma): 0.0563 µM; TGI (UACC-62 melanoma): 0.895 µM; GI50 (UO-31 renal): 3.23 µM; TGI (UO-31 renal): 16.8 µM
